Source: patent US20260206761A1, “HETEROARYL-TRIAZOLE COMPOUNDS AS PESTICIDES” (Bayer Aktiengesellschaft, priority 2019, published 2026)

Assays:
Assay type in all cases: in vivo
[1] = tested on: Aedes aegypti strain MONHEIM; experiment: Aedes aegypti test (AEDSAE surface treatment & contact assay); conditions: 24 hours after contact, read-out: efficacy (mortality); for mortality at 4 mg/m2: surface concentration 4 mg/m^2, exposure 30 minutes
Method: Aedes aegypti Test (AEDSAE Surface Treatment & Contact Assay)
Solvent: Aceton+2000 ppm rapeseed oil methyl ester (RME)
In order to produce a sufficient, active ingredient containing solution it is necessary to solve the test compound in the solvent-mix (acetone at 2 mg/ml/RME 2000 ppm). This solution is pipetted onto a glazed tile and after evaporation of the acetone, adult mosquitoes of the species Aedes aegypti strain MONHEIM are placed onto the dried surface. The exposure time is 30 minutes. Mortality in percent (%) is determined 24 hours after contact of the insects to the treated surface. 100% mortality means that all tested insects are dead, whereas 0% means that no insect died.

[2] = tested on: adult engorged female ticks (Rhipicephalus microplus); experiment: Rhipicephalus (Boophilus) microplus injection test; conditions: 168 h, egg deposition after 7 days, read-out: activity (efficacy: infertile eggs); for pest or weed control at 4 pg: application rate 4 pg/animal; for pest or weed control at 0.02 mg: application rate 20 μg/animal
Method: Rhipicephalus (Boophilus) microplus—Injection Test
(§1) Solvent: dimethyl sulfoxide
To produce a suitable preparation of active compound, 10 mg of active compound are dissolved in 0.5 mL solvent, and the concentrate is diluted with solvent to the desired concentration.
Five adult engorged female ticks (Rhipicephalus microplus) are injected with 1 μL compound solution into the abdomen. The ticks are transferred into replica plates and incubated in a climate chamber.
After 7 days egg deposition of fertile eggs is monitored. Eggs where fertility is not visible are stored in a climate chamber till hatching after about 42 days. An efficacy of 100% means all eggs are infertile; 0% means all eggs are fertile.

[3] = tested on: Rhipicephalus microplus larvae (strain Parkhurst, resistant against synthetic pyrethroids); experiment: Rhipicephalus (Boophilus) microplus in-vitro contact test, larval cattle tick; conditions: after 48 hours, read-out: activity (efficacy: larvae dead or moribund); for pest or weed control at 100 g/ha: application rate 1 pg/cm^2 (=100 g/ha); for pest or weed control at 500 g/ha: application rate 5 pg/cm^2 (=500 g/ha)
Method: Rhipicephalus (Boophilus) microplus—In-Vitro Contact Tests Larval Cattle Tick (Strain Parkhurst. Resistant Against Synthetic Pyrethroids)
(§2) 9 mg compound is solved in 1 mL acetone and diluted with acetone to the desired concentration. 250 μL of the test solution is filled in 25 mL glass test tubes and homogeneously distributed on the inner walls by rotation and tilting on a shaking device (2 h at 30 rpm). With a compound concentration of 900 ppm, an inner surface of 44.7 cm^2 and a homogeneous distribution, a dose of 5 μg/cm^2 is achieved.
After the solvent has evaporated, each test tube is filled with 20-50 cattle tick larvae (Rhipicephalus microplus), closed with a perforated lid and incubated in a horizontal position at 85% relative humidity and 27° C. in an incubator. After 48 hours efficacy is determined. The larvae are patted on the ground of the tubes and negative geotactic behaviour is recorded.
An efficacy of 100% means all larvae are dead or moribund; 0% means no larvae are dead or moribund.

[4] = tested on: adult unfed cat fleas (Ctenocephalides felis); experiment: Ctenocephalides felis oral test; conditions: 48 h, read-out: activity (mortality)
Method: Ctenocephalides felis—Oral Test
as §1
To produce a suitable preparation of active compound, 10 mg of active compound are dissolved in 0.5 mL solvent, and the concentrate is diluted with cattle blood to the desired concentration.
Approximately 20 adult unfed cat fleas (Ctenocephalides felis) are placed in flea chambers. The blood chamber, sealed with parafilm on the bottom, are filled with cattle blood supplied with compound solution and placed on the gauze covered top of the flea chamber, so that the fleas are able to suck the blood. The blood chamber is heated to 37° C. whereas the flea chamber is kept at room temperature.
After 2 days mortality in % is determined. 100% means all the fleas have been killed; 0% means none of the fleas have been killed.

[5] = tested on: larvae of the banded cucumber beetle (Diabrotica balteata); experiment: Diabrotica balteata spray test; conditions: 168 h, after 7 days, read-out: activity (efficacy: seedlings grown); for pest or weed control at 100 g/ha: application rate 100 g/ha (=32 pg/well); for pest or weed control at 500 g/ha: application rate 500 g/ha (=160 pg/well)
Method: Diabrotica balteata—spray test
Solvent: 78.0 parts by weight of acetone • • 1.5 parts by weight of dimethylformamide
(§3) Emulsifier: alkylarylpolyglycol ether
To produce a suitable preparation of active compound, 1 part by weight of active compound is mixed with the stated amount of solvent, and the concentrate is diluted with water, containing an emulsifier concentration of 1000 ppm, to the desired concentration. Further test concentrations are prepared by dilution with emulsifier containing water.
Soaked wheat seeds (Triticum aestivum) are placed in a multiple well plate filled with agar and some water and are incubated for 1 day to germinate (5 seeds per well). The germinated wheat seeds are sprayed with a test solution containing the desired concentration of the active ingredient. Afterwards each unit is infected with 10-20 larvae of the banded cucumber beetle (Diabrotica balteata).
After 7 days efficacy in % is determined. 100% means all the seedlings have grown up like in the untreated, uninfected control; 0% means none of the seedlings have grown.

[6] = tested on: fall armyworm larvae (Spodoptera frugiperda); experiment: Spodoptera frugiperda spray test; conditions: 168 h, read-out: activity (mortality)
Method: Spodoptera frugiperda—Spray Test
Solvent: 78.0 parts by weight acetone • 1.5 parts by weight dimethylformamide
as §3
To produce a suitable preparation of active compound, 1 part by weight of active compound is mixed with the stated amount of solvents and is diluted with water, containing an emulsifier concentration of 1000 ppm, to the desired concentration. Further test concentrations are prepared by dilution with emulsifier containing water.
Maize (Zea mays) leaf sections are sprayed with a preparation of the active ingredient of the desired concentration. Once dry, the leaf sections are infested with fall armyworm larvae (Spodoptera frugiperda).
After 7 days mortality in % is determined. 100% means all caterpillars have been killed and 0% means none of the caterpillars have been killed.

[7] = tested on: green peach aphid (Myzus persicae); experiment: Myzus persicae oral test; conditions: 120 h, application rate 4 ppm, after 5 days
Method: Solvent: 100 parts by weight acetone
To produce a suitable preparation of active compound, 1 part by weight of active compound is mixed with the stated amount of solvent, and the concentrate is diluted with water to the desired concentration.
50 μL compound solution is filled in microtiter plates and 150 μL IPL41 insect medium (33%+15% sugar) is added to obtain a total volume of 200 μL per well. Afterwards the plates are sealed with parafilm through which a mixed population of the green peach aphid (Myzus persicae) can suck on the compound preparation.
After 5 days mortality in % is determined. 100% means all aphids have been killed and 0% means none of the aphids have been killed.

[8] = tested on: adult brown dog ticks (Rhipicephalus sanguineus); experiment: Rhipicephalus sanguineus in-vitro contact test, adult brown dog ticks; conditions: after 48 hours, read-out: activity (efficacy: ticks dead or moribund); for pest or weed control at 5 µg/cm2, 500 g/ha: application rate 5 μg/cm^2 (=500 g/ha); for pest or weed control at 100 g/ha: application rate 1 pg/cm^2 (=100 g/ha)
Method: Rhipicephalus sanguineus—In-Vitro Contact Tests with Adult Brown Dog Ticks
as §2
After the solvent has evaporated, each test tube is filled with 5-10 adult brown dog ticks (Rhipicephalus sanguineus), closed with a perforated lid and incubated in a lying position at room temperature and relative humidity. After 48 hours efficacy is determined. The ticks are patted on the ground of the tubes and are incubated on a heating plate at 45-50° C. for at most 5 minutes. Immotile or uncoordinated moving ticks, which are not able to escape the heat by climbing upwards, are marked as dead or moribund.
An efficacy of 100% means all ticks are dead or moribund; 0% means no ticks are dead or moribund.

SMILES: CCCc1nc([C@H](C)NC(=O)c2cc(Cl)cc(C3CC3)c2)n(-c2ccc(C#N)cn2)n1 [I-1]
- mortality at 4 mg/m2 [1]: 80 to 100%
- pest or weed control at 4 pg [2]: 100%
- pest or weed control at 0.02 mg [2]: 100%
- pest or weed control at 100 g/ha [3]: 100%
- pest or weed control at 500 g/ha [3]: 100%
- mortality at 100 ppm [4]: 100%
- pest or weed control at 100 g/ha [5]: 100%
- pest or weed control at 500 g/ha [5]: 100%
- mortality at 500 g/ha [6]: 100%

SMILES: CCCc1nc([C@H](C)NC(=O)c2cc(Cl)cc(S(C)(=O)=O)c2)n(-c2ccc(C#N)cn2)n1 [I-2]
- pest or weed control at 4 pg [2]: 100%
- pest or weed control at 0.02 mg [2]: 100%
- pest or weed control at 100 g/ha [3]: 100%
- pest or weed control at 500 g/ha [3]: 100%
- mortality at 100 ppm [4]: 100%
- mortality at 100 g/ha [6]: 83%
- mortality at 500 g/ha [6]: 100%

SMILES: COc1nc([C@H](C)NC(=O)c2csc(Cl)c2)n(-c2ccc(C#N)cn2)n1 [I-8]
- mortality at 4 mg/m2 [1]: 80 to 100%
- mortality at 20 mg/m2 ([1]; surface concentration 20 mg/m^2, exposure 30 minutes): 80 to 100%
- pest or weed control at 4 pg [2]: 80%
- pest or weed control at 0.02 mg [2]: 100%
- mortality at 100 ppm [4]: 80%
- pest or weed control at 100 g/ha [5]: 80%
- pest or weed control at 500 g/ha [5]: 100%

SMILES: CCS(=O)(=O)c1cc(Cl)cc(C(=O)N[C@@H](C)c2nc(C3CC3)nn2-c2ccc(C#N)cn2)c1 [I-20]
- pest or weed control at 4 pg [2]: 100%
- pest or weed control at 0.02 mg [2]: 100%
- pest or weed control at 100 g/ha [3]: 100%
- pest or weed control at 500 g/ha [3]: 100%
- mortality at 100 ppm [4]: 100%
- pest or weed control at 100 g/ha [5]: 80%
- mortality at 100 g/ha [6]: 100%

SMILES: C[C@H](NC(=O)c1cc(Cl)cc(S(=O)(=O)C(F)F)c1)c1nc(C2CC2)nn1-c1ccc(C#N)cn1 [I-27]
- pest or weed control at 4 pg [2]: 100%
- pest or weed control at 100 g/ha [3]: 100%
- pest or weed control at 500 g/ha [3]: 100%
- mortality at 100 ppm [4]: 100%
- pest or weed control at 100 g/ha [5]: 100%
- mortality at 100 g/ha [6]: 100%

SMILES: CC(NC(=O)c1cc(C(F)(F)F)n(C)n1)c1nc(Cl)nn1-c1ncccn1 (centres unmarked) [I-31]
- pest or weed control at 4 pg [2]: 100%
- pest or weed control at 0.02 mg [2]: 100%
- pest or weed control at 100 g/ha [3]: 100%
- pest or weed control at 500 g/ha [3]: 100%
- mortality at 100 ppm [4]: 90%
- mortality at 4 ppm [7]: 90%

SMILES: CC(NC(=O)c1cc(C(F)(F)F)n(C)n1)c1nc(Cl)nn1-c1ccc(C#N)cn1 (centres unmarked) [I-33]
- pest or weed control at 4 pg [2]: 80%
- pest or weed control at 0.02 mg [2]: 80%
- pest or weed control at 100 g/ha [3]: 100%
- pest or weed control at 500 g/ha [3]: 100%
- pest or weed control at 5 µg/cm2, 500 g/ha [8]: 80%
- mortality at 100 ppm [4]: 100%

SMILES: CC(NC(=O)c1cc(C(F)(F)F)n(C)n1)c1nc(Br)nn1-c1ncccn1 (centres unmarked) [I-39]
- pest or weed control at 4 pg [2]: 100%
- pest or weed control at 100 g/ha [3]: 100%
- pest or weed control at 500 g/ha [3]: 100%
- pest or weed control at 100 g/ha [8]: 80%
- pest or weed control at 5 µg/cm2, 500 g/ha [8]: 80%
- mortality at 100 ppm [4]: 100%

SMILES: C[C@H](NC(=O)c1cc(Cl)cc(C2(C#N)CC2)c1)c1ncnn1-c1nccs1 [II-5]
- pest or weed control at 4 pg [2]: 100%
- pest or weed control at 0.02 mg [2]: 100%
- mortality at 100 ppm [4]: 100%
- pest or weed control at 500 g/ha [5]: 100%
- mortality at 500 g/ha [6]: 100%

SMILES: Cc1nc([C@H](C)NC(=O)c2csc(Cl)c2)n(-c2cc(C#N)ccn2)n1 [II-19]
- mortality at 4 mg/m2 [1]: 80 to 100%
- pest or weed control at 4 pg [2]: 100%
- pest or weed control at 0.02 mg [2]: 100%
- mortality at 100 ppm [4]: 100%
- pest or weed control at 500 g/ha [5]: 100%

SMILES: C[C@H](NC(=O)c1cc(Cl)cc(S(C)(=O)=O)c1)c1ncnn1-c1ncc(I)s1 [II-51, 3-chloro-N-{(1S)-1-[1-(5-iodo-1,3-thiazol-2-yl)-1H-1,2,4-triazol-5-yl]ethyl}-5-(methylsulfonyl)benzamide]
- pest or weed control at 4 pg [2]: 100%
- pest or weed control at 0.02 mg [2]: 100%
- pest or weed control at 100 g/ha [3]: 100%
- pest or weed control at 500 g/ha [3]: 100%
- pest or weed control at 100 g/ha [8]: 80%
- mortality at 100 ppm [4]: 100%
- pest or weed control at 100 g/ha [5]: 100%
- mortality at 100 g/ha [6]: 100%

SMILES: C[C@H](NC(=O)c1cc(C(F)(F)F)cc(S(C)(=O)=O)c1)c1ncnn1-c1ccc(S(C)(=O)=O)cn1 [II-56, 3-(methylsulfonyl)-N-[(1S)-1-{1-[5-(methylsulfonyl)pyridin-2-yl]-1H-1,2,4-triazol-5-yl}ethyl]-5-(trifluoromethyl)benzamide]
- pest or weed control at 4 pg [2]: 100%
- mortality at 100 ppm [4]: 100%
